Assay results published in patent US6630125B2, “18F-labeled choline analogs” (priority 2000, dated 2003).
Read-outs that look alike come from different tables or passages of the source. One block for each compound: values may come before it.

Tests used:
[1] = tested on: mice with PC-3 xenografts
Experimental: Body weight and tumor volume were measured weekly and tumor volume (mm3) was calculated using the formula S2×L/2, where S and L represent the small and large diameters of the tumor, respectively.
A prescribed duration of time was allowed before procurement of heart, liver, lung, blood, kidney, bone (femur), brain (whole), prostate gland, tumor, bladder, and skeletal muscle. The tissues were weighed, and counted for ^18F in a gamma counter, then dissolved in Solvable (Dupont, Boston Mass.) and counted for ^14C in a liquid scintillation counter. For the bladder, the percentage of the injected dose in the urine was determined. For all other tissues, radiotracer uptake was calculated as: […]

[2] = tested on: PC-3 prostate cancer cells; assay: Analysis of radiolabeled metabolites in PC-3 prostate cancer cells; type: cell-based, human; settings: PC-3 cells, 2 hr
Experimental: The primary hydrophilic metabolites of choline in mammals is phosphocholine and betaine. […] The HPLC system used a microprocessor-controlled solvent delivery system and a silica column (Adsorbosphere Silica (10μ), 250×4.6 mm, Alltech, Deerfield, Ill.). The column was kept at room temperature and the flow rate was maintained at 1.5 ml/min. […] Fractions of effluent were collected every 0.5 min and first counted for ^18F-radioactivity in a well-counter for experiments involving [^18F]FCH, then transferred to scintillation vials for counting for ^14C-radioactivity. The column was equilibrated for 6 min with Buffer A before injection. After the injection (<100 μl), Buffer A was delivered for 6 min which eluted betaine (3 min) from the column. […] Re-equilibration of the column with 100% A for 6 min preceded the next injection.
Methanol (1 ml) was added to each well and the cells were lysed by maintaining the temperature at 37° C. for 30 min. The methanol phase was transferred to a glass test tube. Each well was rinsed with an additional 0.5 ml methanol which was added to the original fraction. To each tube, 3 ml chloroform and 1 ml 0.25 M sodium phosphate (pH=4.5) were added to separate lipids from water-soluble molecules. After vigorous mixing of the samples for 1 min, the two phases were separated, and a 0.5 ml aliquot of each phase was counted for ^18F and ^14C radioactivity. The aqueous phase was further analyzed for water-soluble metabolites using the gradient-HPLC method previously described.
Cells incubated in 6-well plates for 2 hr with radiotracers were thoroughly washed to remove all extracellular radioactivity. The cells were lysed in methanol and the methanol solution added to chloroform to solubilize all lipophilic metabolites.

yeast choline kinase = target: T1, yeast choline kinase (Saccharomyces cerevisiae, UniProt P20485); assay: In vitro phosphorylation by yeast choline kinase; type: biochemical; settings: 1 μM choline; for In vitro phosphorylation: 25 mU/ml yeast choline kinase, 23° C., 10 min, n = 5
T1 sequence (P20485 1-582): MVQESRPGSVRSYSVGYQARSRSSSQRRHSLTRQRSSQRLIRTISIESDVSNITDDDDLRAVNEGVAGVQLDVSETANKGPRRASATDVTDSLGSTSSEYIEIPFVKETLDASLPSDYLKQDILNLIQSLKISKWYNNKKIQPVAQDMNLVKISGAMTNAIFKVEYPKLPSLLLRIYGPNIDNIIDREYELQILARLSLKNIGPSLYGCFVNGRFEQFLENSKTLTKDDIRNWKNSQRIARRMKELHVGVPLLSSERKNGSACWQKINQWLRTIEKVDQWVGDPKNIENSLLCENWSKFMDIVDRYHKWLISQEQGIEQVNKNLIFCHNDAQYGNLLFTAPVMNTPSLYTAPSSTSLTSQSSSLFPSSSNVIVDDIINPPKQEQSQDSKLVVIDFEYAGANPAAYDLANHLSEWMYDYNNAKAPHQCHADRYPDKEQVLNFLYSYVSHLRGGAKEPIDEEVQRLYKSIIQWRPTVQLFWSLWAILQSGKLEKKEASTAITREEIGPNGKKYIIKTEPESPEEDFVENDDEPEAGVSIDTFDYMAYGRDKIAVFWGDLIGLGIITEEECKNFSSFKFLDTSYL
Experimental: The test tube was gently agitated throughout the incubation period. The reaction was stopped by placing the tube in a boiling water bath for 2 min. To serve as controls, some samples were placed directly in the boiling water bath after addition of all substrates. […] The percentage of radioactivity converted to the phosphorylated form was calculated.

normal human subjects = settings: cited from earlier work
[3] = tested on: PC-3 human prostate cancer cells; assay: Accumulation of radiotracers by cultured PC-3 cells; type: cell-based
Experimental: The incubation media utilized for the experiments differed according to the cancer cell type (Table 1). On the day of the study, the medium was refreshed using a volume of 1 ml in each well. Cells were incubated in control conditions or with the addition of metabolic and growth factor receptor inhibitors to test the sensitivity of uptake of the radiotracers to specific inhibitions. […] Following a 30-min incubation period, the radiotracers (e.g., FDG or FCH) were added (˜2 µCi/well) and the cells were incubated for 2 hr. The cells were washed three times with phosphate buffered saline solution, released from the plates by briefly incubating with 0.05% trypsin in DMEM, transferred to test tubes, and counted for F-18 radioactivity in a gamma counter. The amount of radioactivity in the cells was normalized by the dose administered to each well.
The present work studies the structure-activity relationships for purposes of optimization of the molecule for imaging prostate cancer. […] A number of structural analogs of choline were labeled as N-[^18F]fluoromethyl derivatives via the intermediate [^18F]fluorobromomethane (see Table 3). Uptake of the radiotracers was assessed in cultured PC-3 human prostate cancer cells and in a murine PC-3 xenograft model.

[4] = tested on: patients with breast cancer; assay: PET imaging in patients with breast cancer; type: in vivo, human; settings: person, metastatic breast cancer
Experimental: In breast cancer patients, whole-body PET scans were obtained, beginning at 10 min post-administration of FCH. In patients with brain tumors, PET scans of the brain were obtained, beginning at 5 min post-administration of FCH.
Thirteen patients with metastatic breast cancer and one patient with both primary and metastatic breast cancer were each imaged with both FCH-PET and FDG-PET within a period of less than one month.
A person had undergone re-excision of right breast intraductal carcinoma 4 yr prior, then right modified radical mastectomy 3 yr prior followed by tamoxifen chemotherapy. Six months prior to the PET scans, metastatic breast cancer was detected by palpation (right breast sternal mass) and CT (mediastinal and hilar adenopathies, mass in right anterior pelvis). Tamoxifen therapy was stopped. […] Uptake of FCH was also observed in the corresponding tumors: sternal mass (SUV=14.6), mediastinal and hilar adenopathies (SUVs˜8.5), pelvic mass (SUV=6.5). […] Smaller metastases were indicated on the FCH-PET scan in the right chest wall and left lung that were not seen on the FDG-PET scan. Concerning the anterior pelvic tumor, there was observed a homogenous distribution of FDG across the tumor in the FDG-PET scan, whereas the FCH was preferentially distributed on the periphery of the tumor.

[5] = tested on: patients with prostate cancer; assay: PET imaging in patients with prostate cancer
Experimental: The distribution of FCH in PET imaging studies was evaluated in 14 patients with prostate cancer, 14 patients with breast cancer, and 5 patients with brain tumors. Imaging was performed using the Advance PET scanner (GE Medical Systems, Milwaukee, Wis.). […] In prostate cancer patients, a transmission scan of the pelvic region was obtained before administration of radiotracer. FCH (2.5-5 mCi) was administered intravenously, and dynamic imaging of the pelvis region was commenced for 20-30 min. During image reconstruction, the emission data in the pelvic region were corrected for photon attenuation using the transmission scan. Immediately following the dynamic scan, a whole-body emission scan was performed without transmission scanning for attenuation correction. The images were reconstructed using an Ordered Subset Expectation Maximum (OS-EM) algorithm. Regions-of-interest were drawn manually on the attenuation corrected images for evaluation of FCH kinetics in tissues. Standardized uptake values of FCH uptake in tissues were calculated using the attenuation-corrected images according to the equation: [formula]
Patient 2: Transmission and FCH emission scans of a person with hormone naive clinical stage T2 prostate cancer were commenced over the lower pelvis.
The same patient was scanned with FDG within the same week (FIG. 8).
Patient 4: A person with a history of clinical stage T3b prostate cancer treated by radical retropubic prostatectomy was diagnosed with metastatic disease by bone scan. FCH-PET imaging was performed before and after initiating androgen deprivation therapy. In the first study, whole-body emission scanning was started 5 min after injection, beginning at the pelvic region in order to image the pelvis and prostatic bed before arrival of urinary radioactivity. […] The patient was rescanned 2 weeks after initiating androgen deprivation therapy.
Patient 5: A person was initially diagnosed five years prior with locally advanced clinical stage T3NOMO prostate cancer and underwent radical prostatectomy followed by external beam radiation to the prostate bed. […] The patient was then treated with Zolex and Casodex.

BALB/c nude mice = assay: Acute toxicity study in mice; type: in vivo; settings: 1 mg/kg body weight
Experimental: Four unanesthetized BALB/c nude mice were administered 1 mg/kg [^19F]FCH via tail vein injection and monitored for 48 hr. This dose represented an approximately 300,000 fold excess of FCH in comparison to the normal dose that a 70 kg person would receive in a [^18F]FCH study. The mice were euthanized at 48 hr.
Acute toxicity of 1 mg/kg body weight of [^19F]FCH was determined in four untreated BALB/c mice. […] Based on estimates of specific activity of the [^18F]FCH (2 Ci/mmol), the normal dose of FCH in the radiotracer preparation would be a factor of 300,000 times lower than the dose given in this toxicity study.

Uptake in Blood ([1]; 10 min): 2.1 ± 0.3 % dose kg/100 g | Uptake in Brain ([1]; 10 min): 1.4 ± 0.7 % dose kg/100 g | Uptake in Heart ([1]; 10 min): 20.3 ± 7.2 % dose kg/100 g | Uptake in Kidney ([1]; 10 min): 99.0 ± 12.9 % dose kg/100 g | Uptake in Liver ([1]; 10 min): 52.3 ± 11.9 % dose kg/100 g | Uptake in Lung ([1]; 10 min): 26.0 ± 9.6 % dose kg/100 g | Uptake in Prostate ([1]; 10 min): 9.0 ± 6.8 % dose kg/100 g | Uptake in Skeletal Muscle ([1]; 10 min): 4.7 ± 1.7 % dose kg/100 g | Uptake in Tumor ([1]; 10 min): 3.2 ± 1.8 % dose kg/100 g | Uptake in Blood ([1]; 30 min): 1.5 ± 0.9 % dose kg/100 g | Uptake in Brain ([1]; 30 min): 1.0 ± 0.8 % dose kg/100 g | Uptake in Heart ([1]; 30 min): 9.7 ± 1.9 % dose kg/100 g | Uptake in Kidney ([1]; 30 min): 53.4 ± 7.3 % dose kg/100 g | Uptake in Liver ([1]; 30 min): 65.2 ± 19.4 % dose kg/100 g | Uptake in Lung ([1]; 30 min): 9.6 ± 6.6 % dose kg/100 g | Uptake in Prostate ([1]; 30 min): 5.9 ± 2.5 % dose kg/100 g | Uptake in Skeletal Muscle ([1]; 30 min): 2.5 ± 1.5 % dose kg/100 g | Uptake in Tumor ([1]; 30 min): 4.8 ± 1.6 % dose kg/100 g | Uptake in Blood ([1]; 60 min): 2.2 ± 1.0 % dose kg/100 g | Uptake in Brain ([1]; 60 min): 1.7 ± 0.6 % dose kg/100 g | Uptake in Heart ([1]; 60 min): 9.1 ± 2.5 % dose kg/100 g | Uptake in Kidney ([1]; 60 min): 41.5 ± 15.0 % dose kg/100 g | Uptake in Liver ([1]; 60 min): 67.1 ± 49.7 % dose kg/100 g | Uptake in Lung ([1]; 60 min): 16.7 ± 3.7 % dose kg/100 g | Uptake in Prostate ([1]; 60 min): 5.5 ± 2.6 % dose kg/100 g | Uptake in Skeletal Muscle ([1]; 60 min): 2.8 ± 1.7 % dose kg/100 g | Uptake in Tumor ([1]; 60 min): 6.7 ± 2.5 % dose kg/100 g | injected dose in the urinary bladder ([1]; at 30 min): 1% | In vitro phosphorylation (yeast choline kinase): 55.9 ± 11.0%
SMILES: C[N+](C)(C)CCO [CH, [methyl-^14C]Choline, reference compound]
oxidation in the cancer cells (betaine / fluorobetaine by HPLC) [2]: negligible

SMILES: C[N+](C)(CCO)CC[18F] [HARA-1, 2-[^18F]fluoroethyl-dimethyl-2-hydroxyethyl-ammonium, reference compound]
urinary excretion compared with CH (normal human subjects): more prominent urinary excretion of radioactivity | phosphorylation rate, less than for FCH (yeast choline kinase): approximately 30% | In vitro phosphorylation (yeast choline kinase): 43.4 ± 3.4 % | accumulation by cultured PC-3 cells compared with other tracers ([3]; control conditions): one fifth of the uptake of FCH | Uptake by PC-3 cancer cells, Control ([3]; control, 2 hr incubation): 0.32 ± 0.05 % dose/2 hr/105 cells plated | Uptake by PC-3 cells ([3]; inhibitor none): 0.322 ± 0.054 % dose/2 hr/10^5 cells plated

SMILES: OC[C@H]1OC(O)[C@H]([18F])[C@@H](O)[C@@H]1O (some centres unmarked) [FDG, [^18F]fluoro-2-deoxy-glucose, reference compound]
Uptake in Blood ([1]; 45 min): 2.8 ± 0.009 % dose kg/100 g | Uptake in Brain ([1]; 45 min): 8.0 ± 0.7 % dose kg/100 g | Uptake in Heart ([1]; 45 min): 48.2 ± 17.9 % dose kg/100 g | Uptake in Kidney ([1]; 45 min): 5.3 ± 1.9 % dose kg/100 g | Uptake in Liver ([1]; 45 min): 1.5 ± 0.4 % dose kg/100 g | Uptake in Lung ([1]; 45 min): 7.4 ± 3.1 % dose kg/100 g | Uptake in Prostate ([1]; 45 min): 2.3 ± 0.4 % dose kg/100 g | Uptake in Skeletal Muscle ([1]; 45 min): 8.3 ± 0.4 % dose kg/100 g | Uptake in Tumor ([1]; 45 min): 8.9 ± 0.7 % dose kg/100 g | SUV of pelvic tumor / pelvic mass [4]: 9.5 | SUV of sternal mass [4]: 5.0 | SUVs of mediastinal and hilar adenopathies [4]: ~5.5 | SUV of osseous lesion (pubic ramus) ([5]; Example 11 patient, metastatic prostate cancer): 6.5 | SUV values relative to FCH in the same lesions ([5]; Patient 3): approximately one half | SUV index in osseous lesions ([5]; patient #3, FIG. 8): 4.1

SMILES: C[N+](C)(CF)CCO.[Cl-] [[^19F]FCH, Dimethylfluoromethyl-2-hydroxyethylammonium Chloride]
behavioural/movement abnormalities (BALB/c nude mice; 48 hr monitoring): Neither were any behavioural/movement abnormalities observed | deaths (BALB/c nude mice; tail vein, up to 48 hr, four mice): No deaths were observed
